# Where two headings read alike, the source gives them in different places.
# Assays:
# BACE-1 = biological target: T1, BACE-1 (Homo sapiens, UniProt P56817); test: BACE-1 inhibition (β-secretase activity detection kit); type: biochemical; conditions: 10 µM compound; read-out: Residual activity at 10 µM (%) BACE-1
# T1 construct: purchased Sigma-Aldrich
# Description: (§1) The AChE and BChE inhibitory activities were measured by continuous colorimetric determination method, in the presence of 0.5 mM acetylthiocholine iodide (ACTI) and butyrylthiocholine iodide […]
# (§2) POP, K LAB, Daejeon, Korea). After adding the substrate, 0.5 mM 5,5-dithiobis (2-nitrobenzoic acid) (DTNB) was added as the color development solution. The BACE-1 inhibitory activity was evaluated by β-secretase (BACE1) activity detection kit (Sigma-Aldrich, St. Louis, Mo, USA) using a fluorescence spectrometer (FS-2, Scinco, Seoul, Korea). […]
# AChE = AChE (Electrophorus electricus, UniProt O42275); test: AChE inhibition (colorimetric, acetylthiocholine iodide); type: biochemical; conditions: read-out: Residual activity at 10 µM (%) AChE
# AChE, sequence (O42275 24-633): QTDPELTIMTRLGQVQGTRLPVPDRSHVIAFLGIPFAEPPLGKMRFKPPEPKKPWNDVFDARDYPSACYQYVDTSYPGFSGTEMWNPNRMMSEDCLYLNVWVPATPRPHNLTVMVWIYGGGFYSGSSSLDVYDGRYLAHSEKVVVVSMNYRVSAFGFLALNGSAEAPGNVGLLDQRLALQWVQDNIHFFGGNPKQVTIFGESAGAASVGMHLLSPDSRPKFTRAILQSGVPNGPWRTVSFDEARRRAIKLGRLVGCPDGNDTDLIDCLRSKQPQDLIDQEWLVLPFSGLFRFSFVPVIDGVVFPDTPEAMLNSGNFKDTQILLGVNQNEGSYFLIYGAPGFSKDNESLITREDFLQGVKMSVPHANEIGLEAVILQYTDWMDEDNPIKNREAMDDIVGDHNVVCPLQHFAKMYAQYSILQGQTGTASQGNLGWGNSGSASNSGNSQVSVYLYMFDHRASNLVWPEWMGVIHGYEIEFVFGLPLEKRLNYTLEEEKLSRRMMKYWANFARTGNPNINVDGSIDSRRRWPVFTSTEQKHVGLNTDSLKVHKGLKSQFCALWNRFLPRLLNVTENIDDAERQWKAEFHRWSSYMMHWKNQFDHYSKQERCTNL
# Description: as §1
# POP, K LAB, Daejeon, Korea). After adding the substrate, 0.5 mM 5,5-dithiobis (2-nitrobenzoic acid) (DTNB) was added as the color development solution. The BACE-1 inhibitory activity was evaluated by β-secretase (BACE1) activity detection kit (Sigma-Aldrich, St. Louis, Mo, USA) using a fluorescence spectrometer (FS-2, Scinco, Seoul, Korea).
# 64. […] A new and rapid colorimetric determination of acetylcholinesterase activity. Biochem. Pharmacol. 7, 88-95. […]
# BChE = BChE (Equus caballus, UniProt P81908); test: biochemical; conditions: read-out: Residual activity at 10 µM (%) BChE
# BChE, sequence (P81908 whole entry): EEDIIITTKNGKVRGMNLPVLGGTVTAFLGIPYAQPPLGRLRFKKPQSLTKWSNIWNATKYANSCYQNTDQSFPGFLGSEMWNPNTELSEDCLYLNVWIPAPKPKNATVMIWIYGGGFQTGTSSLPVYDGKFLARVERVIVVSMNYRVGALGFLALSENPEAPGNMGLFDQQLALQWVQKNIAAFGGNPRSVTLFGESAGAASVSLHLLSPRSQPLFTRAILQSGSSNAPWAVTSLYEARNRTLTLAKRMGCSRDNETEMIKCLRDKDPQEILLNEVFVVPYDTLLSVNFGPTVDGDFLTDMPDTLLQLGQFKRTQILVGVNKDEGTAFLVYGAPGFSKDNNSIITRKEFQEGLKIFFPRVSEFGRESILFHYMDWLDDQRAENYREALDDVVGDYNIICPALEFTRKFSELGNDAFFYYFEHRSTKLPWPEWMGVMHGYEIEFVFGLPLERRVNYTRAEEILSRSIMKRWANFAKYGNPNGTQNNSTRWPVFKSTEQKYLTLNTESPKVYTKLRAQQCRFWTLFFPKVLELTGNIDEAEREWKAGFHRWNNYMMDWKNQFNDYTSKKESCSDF
# Description: as §1, §2
# MAO-B = biological target: T2, MAO-B (Homo sapiens, UniProt P27338); test: MAO-B inhibition assay (recombinant enzyme, benzylamine substrate); type: biochemical; conditions: for remaining activity at 10 µM: 10 µM compound, read-out: Residual Activity at 10 µM (%) MAO-B; for remaining activity at 10 µM / IC50: recombinant MAO-B, benzylamine 0.3 mM; for IC50: read-out: IC50 (µM) MAO-B
# T2 construct: purchased Sigma-Aldrich
# T2 sequence (P27338 1-520): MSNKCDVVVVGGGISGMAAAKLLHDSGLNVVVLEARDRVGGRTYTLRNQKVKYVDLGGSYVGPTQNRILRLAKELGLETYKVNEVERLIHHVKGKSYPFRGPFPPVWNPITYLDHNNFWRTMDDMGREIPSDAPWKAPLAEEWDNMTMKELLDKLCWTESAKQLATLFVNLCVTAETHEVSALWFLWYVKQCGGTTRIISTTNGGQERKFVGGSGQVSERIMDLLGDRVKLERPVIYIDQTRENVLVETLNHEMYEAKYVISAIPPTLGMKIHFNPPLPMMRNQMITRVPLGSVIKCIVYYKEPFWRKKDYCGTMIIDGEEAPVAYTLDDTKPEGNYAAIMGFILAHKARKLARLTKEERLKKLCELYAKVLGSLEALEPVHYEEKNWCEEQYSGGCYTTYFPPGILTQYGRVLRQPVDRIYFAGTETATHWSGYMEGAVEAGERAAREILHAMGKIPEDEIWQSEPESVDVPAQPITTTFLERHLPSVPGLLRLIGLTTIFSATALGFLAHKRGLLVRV
# Description: (§3) Recombinant MAO-A and MAO-B were used to test the MAO inhibitory activity using the substrates kynuramine and benzylamine (0.06 mM and 0.3 mM, respectively). […] Chemicals were from Sigma-Aldrich.
# (§4) MAO-A At 10 µM, compounds’ inhibitory effects on MAOs were initially recorded. […] The SI values of MAO-B were calculated by dividing the IC50 values for MAO-A and those for MAO-B. The MAO-B was used to study the kinetics of substances DM2 or DM18 at five different substrate concentrations. By using the LB plots and their secondary plots at three different inhibitor doses, the inhibition patterns were examined.
# MAO-A = biological target: T3, MAO-A (Homo sapiens, UniProt P21397); test: MAO-A inhibition assay (recombinant enzyme, kynuramine substrate); type: biochemical; conditions: recombinant MAO-A, kynuramine 0.06 mM; for remaining activity at 10 µM: 10 µM compound, read-out: Residual Activity at 10 µM (%) MAO-A; for IC50: read-out: IC50 (µM) MAO-A
# T3 construct: purchased Sigma-Aldrich
# T3 sequence (P21397 1-527): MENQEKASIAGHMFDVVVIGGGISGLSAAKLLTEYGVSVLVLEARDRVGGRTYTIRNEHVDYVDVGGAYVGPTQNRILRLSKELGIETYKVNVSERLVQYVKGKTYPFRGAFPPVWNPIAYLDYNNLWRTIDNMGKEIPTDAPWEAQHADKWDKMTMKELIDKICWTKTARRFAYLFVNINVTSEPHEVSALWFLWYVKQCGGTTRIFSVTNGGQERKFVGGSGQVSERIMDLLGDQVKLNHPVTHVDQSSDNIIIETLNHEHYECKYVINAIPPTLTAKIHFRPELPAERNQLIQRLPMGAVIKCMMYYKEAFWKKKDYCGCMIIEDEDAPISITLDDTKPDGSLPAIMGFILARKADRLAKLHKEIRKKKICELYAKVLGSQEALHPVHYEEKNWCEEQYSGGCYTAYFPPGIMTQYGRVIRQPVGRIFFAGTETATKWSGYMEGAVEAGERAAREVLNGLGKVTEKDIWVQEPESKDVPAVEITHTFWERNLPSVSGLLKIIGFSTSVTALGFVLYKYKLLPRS
# Description: as §3, §4
# [1] = IC50 MAO-A divided by IC50 MAO-B
# T1 sequence (P56817 46-501): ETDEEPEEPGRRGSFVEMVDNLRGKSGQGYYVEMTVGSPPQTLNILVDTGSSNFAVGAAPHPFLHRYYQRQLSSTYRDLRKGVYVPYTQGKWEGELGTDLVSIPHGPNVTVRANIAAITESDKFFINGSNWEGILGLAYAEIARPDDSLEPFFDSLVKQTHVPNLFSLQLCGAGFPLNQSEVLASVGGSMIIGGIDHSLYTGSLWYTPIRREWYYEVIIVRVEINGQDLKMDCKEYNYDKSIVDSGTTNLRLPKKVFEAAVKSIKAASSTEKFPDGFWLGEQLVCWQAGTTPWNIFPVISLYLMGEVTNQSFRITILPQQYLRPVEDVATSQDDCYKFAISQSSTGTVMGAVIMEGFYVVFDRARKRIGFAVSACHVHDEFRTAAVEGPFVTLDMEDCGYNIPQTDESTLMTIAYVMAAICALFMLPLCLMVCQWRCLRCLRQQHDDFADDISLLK
Structure (SMILES),remaining activity at 10 µM (BACE-1),remaining activity at 10 µM (AChE),remaining activity at 10 µM (BChE),remaining activity at 10 µM (MAO-B),SI (selectivity index for MAO-B as compared to MAO-A) (MAO-B; [1]),IC50 (MAO-B),remaining activity at 10 µM (MAO-A),IC50 (MAO-A),SI (selectivity index for MAO-B as compared to MAO-A) (MAO-B)
COc1ccc(C(=O)/C=C/c2ccccc2)cc1OC [DM11],97.5 ± 1.02%,80.3 ± 5.21%,80.5 ± 1.36%,14.6 ± 3.48%,6.54,2.19 ± 0.098 µM,64.6 ± 0.72%,14.3 ± 1.83 µM,–
COc1ccc(C(=O)/C=C/c2ccccc2Cl)cc1OC [DM12],94.3 ± 1.06%,68.5 ± 2.87%,63.5 ± 1.47%,8.98 ± 0.92%,>32.65,1.23 ± 0.25 µM,88.7 ± 9.4%,> 40 µM,–
COc1ccc(C(=O)/C=C/c2cccc(Cl)c2)cc1OC [DM13],99.86 ± 0.28%,95 ± 3.4%,100 ± 7.32%,7.49 ± 0.12%,>8.51,4.7 ± 0.32 µM,75.6 ± 0.88%,> 40 µM,–
COc1ccc(C(=O)/C=C/c2ccc(Cl)cc2)cc1OC [DM14],99.83 ± 0.81%,97.6 ± 3.42%,76.5 ± 1.37%,9.45 ± 2.88%,>48.02,0.833 ± 0.087 µM,98.8 ± 1.77%,> 40 µM,–
COc1ccc(C(=O)/C=C/c2ccccc2Br)cc1OC [DM15],99.54 ± 0.24%,83.9 ± 4.91%,55.2 ± 1.01%,10.2 ± 0.17%,>55.87,0.716 ± 0.056 µM,77.5 ± 7.07%,> 40 µM,–
COc1ccc(C(=O)/C=C/c2cccc(Br)c2)cc1OC [DM16],99.74 ± 0.04%,82.7 ± 9.21%,91.2 ± 1.43%,11.8 ± 5.27%,>35.94,1.11 ± 0.26 µM,76.9 ± 0.88%,> 40 µM,–
COc1ccc(C(=O)/C=C/c2ccc(Br)cc2)cc1OC [DM17],100.03 ± 0.04%,81.8 ± 6.31%,68.9 ± 1.57%,13.8 ± 0.61%,>273.97,0.146 ± 0.041 µM,96.88 ± 0.88%,> 40 µM,–
COc1ccc(C(=O)/C=C/c2cccc(F)c2)cc1OC [DM19],99.86 ± 0.12%,70 ± 2.02%,103 ± 8.13%,3.94 ± 1.76%,>88.89,0.45 ± 0.071 µM,93.7 ± 7.16%,> 40 µM,–
COc1ccc(C(=O)/C=C/c2ccc(F)cc2)cc1OC [DM20],99.89 ± 0.08%,86.98 ± 0.45%,93.1 ± 6.5%,3.7%,–,0.483 ± 0.077 µM,97.5 ± 8.95%,> 40 µM,>83.82
